Experimental data: patent US20070149535A1, “Protein kinase inhibitors” (ONCALIS AG, priority 2004, published 2007)

Tests used:
Assay in all cases: Yeast growth assay, specificity profiling
Type in all cases: cell-based
Set-up in all cases: key: “−” indicates no growth restoration i.e. no activity against the particular kinase; “+”, “++”, and “+++” indicate activity detected by restoration of growth, classified into three categories of potency; “+”, “++”, and “+++” indicate activity detected by restoration of growth, classified into three categories of potency; “+”, “++”, and “+++” indicate activity detected by restoration of growth, classified into three categories of potency
Conditions in all cases: 7 concentrations between 0.2 and 100 μM
IGF-1R = target: T1, IGF-1R (Homo sapiens, UniProt P08069)
T1 construct: expressed in transfected cells; host or cells: yeast
T1 sequence (P08069 31-1367): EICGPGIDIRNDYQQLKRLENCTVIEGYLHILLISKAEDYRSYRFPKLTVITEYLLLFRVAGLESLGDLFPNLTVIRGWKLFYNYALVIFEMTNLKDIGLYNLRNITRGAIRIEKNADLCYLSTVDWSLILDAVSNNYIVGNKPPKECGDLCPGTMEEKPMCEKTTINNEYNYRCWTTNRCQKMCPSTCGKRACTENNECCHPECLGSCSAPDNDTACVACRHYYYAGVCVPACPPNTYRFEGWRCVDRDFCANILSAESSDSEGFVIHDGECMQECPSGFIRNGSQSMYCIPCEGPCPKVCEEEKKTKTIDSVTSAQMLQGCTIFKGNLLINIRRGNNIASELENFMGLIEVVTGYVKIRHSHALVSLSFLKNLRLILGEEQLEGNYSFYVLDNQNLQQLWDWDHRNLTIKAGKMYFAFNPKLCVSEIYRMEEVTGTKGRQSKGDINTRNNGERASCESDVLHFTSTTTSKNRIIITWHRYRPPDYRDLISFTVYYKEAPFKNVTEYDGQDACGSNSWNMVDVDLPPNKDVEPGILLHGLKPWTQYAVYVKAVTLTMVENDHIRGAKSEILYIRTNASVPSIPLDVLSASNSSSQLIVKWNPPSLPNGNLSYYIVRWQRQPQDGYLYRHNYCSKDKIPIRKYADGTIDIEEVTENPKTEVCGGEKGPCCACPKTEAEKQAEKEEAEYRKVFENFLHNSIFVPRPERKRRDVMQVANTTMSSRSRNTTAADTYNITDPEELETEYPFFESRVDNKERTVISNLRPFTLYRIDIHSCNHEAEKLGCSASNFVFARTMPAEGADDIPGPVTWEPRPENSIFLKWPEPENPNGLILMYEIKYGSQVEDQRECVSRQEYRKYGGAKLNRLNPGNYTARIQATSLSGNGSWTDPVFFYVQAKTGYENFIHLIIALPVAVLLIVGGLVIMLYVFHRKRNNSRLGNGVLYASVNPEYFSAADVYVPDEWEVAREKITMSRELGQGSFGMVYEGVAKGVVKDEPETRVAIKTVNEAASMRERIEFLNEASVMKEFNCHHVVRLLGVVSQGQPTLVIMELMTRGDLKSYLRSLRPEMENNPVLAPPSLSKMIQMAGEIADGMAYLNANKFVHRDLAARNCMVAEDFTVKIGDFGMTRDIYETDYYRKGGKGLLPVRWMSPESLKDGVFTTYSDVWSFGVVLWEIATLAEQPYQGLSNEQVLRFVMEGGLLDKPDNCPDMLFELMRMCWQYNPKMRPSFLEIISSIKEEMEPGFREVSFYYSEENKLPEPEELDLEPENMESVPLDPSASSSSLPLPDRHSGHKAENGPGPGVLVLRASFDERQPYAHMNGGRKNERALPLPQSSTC
Method: (§1) Specificity Profiling: Yeast Growth Assay
(§2) The yeast growth assay was performed as described in “Method for the identification and/or validation of receptor tyrosine kinase inhibitors” PCT/CH03/00694 (2004/10/24), section “Modes for Carrying out the Invention, Experiment 1 and Experiment 2.
(§3) Briefly, yeast cells carrying plasmids with the RTK of interest were grown in glucose containing medium (repressing expression). The cultures were diluted into galactose containing medium, which induces the expression of the kinase. Expression of the kinase inhibits growth of the yeast cells, which allows for positive selection of kinase inhibitors restoring growth of cells. Compounds were titrated at 7 concentrations between 0.2 and 100 μM.
(§4) Specificity profiling of compounds, using the yeast growth assay method described above. “−” indicates no growth restoration i.e. no activity against the particular kinase, “+”, “++”, and “+++” indicate activity detected by restoration of growth, classified into three categories of potency according to the maximal level of growth restoration reached and the concentration at which the maximal growth restoration is reached.

RET = target: T2, RET (Homo sapiens, UniProt P07949)
T2 construct: expressed in transfected cells; host or cells: yeast
Method: as §1, §2, §3, §4

EphA2 = target: T3, EphA2 (Homo sapiens, UniProt P29317)
T3 construct: expressed in transfected cells; host or cells: yeast
T3 sequence (P29317 24-976): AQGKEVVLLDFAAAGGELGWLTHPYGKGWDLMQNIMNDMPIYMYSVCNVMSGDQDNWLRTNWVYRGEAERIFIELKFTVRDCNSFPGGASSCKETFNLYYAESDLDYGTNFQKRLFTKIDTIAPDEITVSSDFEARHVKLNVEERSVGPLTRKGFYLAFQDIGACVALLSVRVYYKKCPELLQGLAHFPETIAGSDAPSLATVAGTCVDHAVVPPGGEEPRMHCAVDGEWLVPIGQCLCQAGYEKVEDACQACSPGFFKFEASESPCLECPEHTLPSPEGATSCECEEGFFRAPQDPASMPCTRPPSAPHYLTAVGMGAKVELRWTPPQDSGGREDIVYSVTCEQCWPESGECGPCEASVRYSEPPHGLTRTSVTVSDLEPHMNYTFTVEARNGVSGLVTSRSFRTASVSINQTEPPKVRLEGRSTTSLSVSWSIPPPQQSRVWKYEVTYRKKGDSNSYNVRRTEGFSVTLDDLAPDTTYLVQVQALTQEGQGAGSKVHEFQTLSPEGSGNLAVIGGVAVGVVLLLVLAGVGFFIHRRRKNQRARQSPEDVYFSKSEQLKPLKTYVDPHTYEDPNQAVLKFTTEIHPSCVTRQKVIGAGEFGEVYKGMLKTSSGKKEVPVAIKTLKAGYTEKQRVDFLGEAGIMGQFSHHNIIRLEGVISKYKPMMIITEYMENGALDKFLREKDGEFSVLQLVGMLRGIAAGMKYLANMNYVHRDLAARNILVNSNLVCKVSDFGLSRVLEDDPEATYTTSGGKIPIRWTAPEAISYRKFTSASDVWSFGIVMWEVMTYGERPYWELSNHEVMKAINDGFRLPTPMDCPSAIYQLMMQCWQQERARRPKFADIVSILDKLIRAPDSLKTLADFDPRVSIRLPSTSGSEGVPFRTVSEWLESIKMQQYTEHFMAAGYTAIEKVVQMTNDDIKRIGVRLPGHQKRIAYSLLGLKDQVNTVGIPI
Method: as §1, §2, §3, §4

VEGFR2 = target: T4, VEGFR2 (Homo sapiens, UniProt P35968)
T4 construct: expressed in transfected cells; host or cells: yeast
T4 sequence (P35968 20-1356): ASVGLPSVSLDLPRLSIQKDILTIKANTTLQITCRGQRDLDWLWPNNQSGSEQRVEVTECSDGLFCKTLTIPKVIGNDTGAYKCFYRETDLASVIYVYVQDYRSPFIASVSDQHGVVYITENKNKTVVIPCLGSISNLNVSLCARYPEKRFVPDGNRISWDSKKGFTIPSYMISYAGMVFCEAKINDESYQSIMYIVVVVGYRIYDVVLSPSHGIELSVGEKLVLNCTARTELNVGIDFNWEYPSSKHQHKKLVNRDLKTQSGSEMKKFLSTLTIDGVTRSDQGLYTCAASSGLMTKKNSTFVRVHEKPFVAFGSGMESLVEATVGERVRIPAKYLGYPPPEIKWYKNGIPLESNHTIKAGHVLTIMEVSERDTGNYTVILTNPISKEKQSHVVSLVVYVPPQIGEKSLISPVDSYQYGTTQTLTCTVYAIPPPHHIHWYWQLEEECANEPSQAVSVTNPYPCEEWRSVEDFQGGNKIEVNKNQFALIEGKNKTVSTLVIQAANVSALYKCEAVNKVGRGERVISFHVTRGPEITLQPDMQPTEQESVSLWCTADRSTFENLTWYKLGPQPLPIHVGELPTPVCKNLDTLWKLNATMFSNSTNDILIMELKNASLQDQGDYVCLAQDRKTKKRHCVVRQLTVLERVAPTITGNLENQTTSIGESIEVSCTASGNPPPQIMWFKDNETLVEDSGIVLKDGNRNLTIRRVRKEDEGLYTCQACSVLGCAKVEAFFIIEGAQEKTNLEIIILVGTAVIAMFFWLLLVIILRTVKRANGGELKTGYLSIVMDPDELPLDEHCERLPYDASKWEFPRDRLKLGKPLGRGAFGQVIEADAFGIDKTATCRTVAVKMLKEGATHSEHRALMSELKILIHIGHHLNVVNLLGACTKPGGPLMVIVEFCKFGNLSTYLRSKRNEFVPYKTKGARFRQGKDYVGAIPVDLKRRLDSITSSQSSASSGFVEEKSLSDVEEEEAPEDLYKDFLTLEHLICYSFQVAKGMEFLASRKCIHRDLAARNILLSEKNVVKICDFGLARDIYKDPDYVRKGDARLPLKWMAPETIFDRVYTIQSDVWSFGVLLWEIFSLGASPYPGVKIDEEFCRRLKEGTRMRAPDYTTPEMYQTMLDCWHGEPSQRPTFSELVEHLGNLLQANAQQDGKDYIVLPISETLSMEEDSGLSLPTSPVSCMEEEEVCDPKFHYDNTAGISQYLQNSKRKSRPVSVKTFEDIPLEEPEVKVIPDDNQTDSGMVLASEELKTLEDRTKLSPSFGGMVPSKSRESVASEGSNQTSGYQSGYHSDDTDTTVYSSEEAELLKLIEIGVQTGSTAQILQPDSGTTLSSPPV
Method: as §1, §2, §3, §4

VEGFR1 = target: T5, VEGFR1 (Homo sapiens, UniProt P17948)
T5 construct: expressed in transfected cells; host or cells: yeast
T5 sequence (P17948 27-1338): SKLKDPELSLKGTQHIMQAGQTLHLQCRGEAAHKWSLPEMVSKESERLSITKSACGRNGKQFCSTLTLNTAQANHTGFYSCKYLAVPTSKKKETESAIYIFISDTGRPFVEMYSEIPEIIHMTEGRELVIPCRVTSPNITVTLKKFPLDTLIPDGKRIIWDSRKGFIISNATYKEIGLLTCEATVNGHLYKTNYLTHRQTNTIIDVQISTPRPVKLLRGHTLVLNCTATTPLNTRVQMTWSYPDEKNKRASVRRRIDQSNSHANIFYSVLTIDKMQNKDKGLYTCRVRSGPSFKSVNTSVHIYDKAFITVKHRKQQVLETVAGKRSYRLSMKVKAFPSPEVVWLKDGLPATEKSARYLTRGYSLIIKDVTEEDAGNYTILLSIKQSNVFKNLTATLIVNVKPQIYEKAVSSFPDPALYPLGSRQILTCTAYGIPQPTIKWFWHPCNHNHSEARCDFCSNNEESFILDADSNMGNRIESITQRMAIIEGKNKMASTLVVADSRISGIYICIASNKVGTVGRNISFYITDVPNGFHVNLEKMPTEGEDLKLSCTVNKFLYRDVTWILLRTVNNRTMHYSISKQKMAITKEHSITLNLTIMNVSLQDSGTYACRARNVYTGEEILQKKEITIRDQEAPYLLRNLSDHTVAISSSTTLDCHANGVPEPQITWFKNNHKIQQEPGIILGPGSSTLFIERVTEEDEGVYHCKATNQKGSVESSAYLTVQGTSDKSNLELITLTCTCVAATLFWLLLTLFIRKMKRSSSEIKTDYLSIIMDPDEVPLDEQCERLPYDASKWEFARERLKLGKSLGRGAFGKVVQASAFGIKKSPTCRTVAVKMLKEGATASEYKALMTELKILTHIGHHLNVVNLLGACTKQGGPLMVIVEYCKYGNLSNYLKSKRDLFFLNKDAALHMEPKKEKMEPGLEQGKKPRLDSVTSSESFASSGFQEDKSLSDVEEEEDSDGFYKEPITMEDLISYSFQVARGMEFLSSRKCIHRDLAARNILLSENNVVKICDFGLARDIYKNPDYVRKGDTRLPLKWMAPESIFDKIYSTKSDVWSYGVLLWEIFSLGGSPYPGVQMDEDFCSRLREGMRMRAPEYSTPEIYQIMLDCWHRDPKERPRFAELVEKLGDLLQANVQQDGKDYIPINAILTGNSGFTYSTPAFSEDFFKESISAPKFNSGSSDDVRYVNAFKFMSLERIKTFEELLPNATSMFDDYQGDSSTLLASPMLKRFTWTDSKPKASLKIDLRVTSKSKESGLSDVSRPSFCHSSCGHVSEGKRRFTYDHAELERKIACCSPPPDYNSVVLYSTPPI
Method: as §1, §2, §3, §4

EphB4 = target: T6, EphB4 (Homo sapiens, UniProt P54760)
T6 construct: expressed in transfected cells; host or cells: yeast
T6 sequence (P54760 16-987): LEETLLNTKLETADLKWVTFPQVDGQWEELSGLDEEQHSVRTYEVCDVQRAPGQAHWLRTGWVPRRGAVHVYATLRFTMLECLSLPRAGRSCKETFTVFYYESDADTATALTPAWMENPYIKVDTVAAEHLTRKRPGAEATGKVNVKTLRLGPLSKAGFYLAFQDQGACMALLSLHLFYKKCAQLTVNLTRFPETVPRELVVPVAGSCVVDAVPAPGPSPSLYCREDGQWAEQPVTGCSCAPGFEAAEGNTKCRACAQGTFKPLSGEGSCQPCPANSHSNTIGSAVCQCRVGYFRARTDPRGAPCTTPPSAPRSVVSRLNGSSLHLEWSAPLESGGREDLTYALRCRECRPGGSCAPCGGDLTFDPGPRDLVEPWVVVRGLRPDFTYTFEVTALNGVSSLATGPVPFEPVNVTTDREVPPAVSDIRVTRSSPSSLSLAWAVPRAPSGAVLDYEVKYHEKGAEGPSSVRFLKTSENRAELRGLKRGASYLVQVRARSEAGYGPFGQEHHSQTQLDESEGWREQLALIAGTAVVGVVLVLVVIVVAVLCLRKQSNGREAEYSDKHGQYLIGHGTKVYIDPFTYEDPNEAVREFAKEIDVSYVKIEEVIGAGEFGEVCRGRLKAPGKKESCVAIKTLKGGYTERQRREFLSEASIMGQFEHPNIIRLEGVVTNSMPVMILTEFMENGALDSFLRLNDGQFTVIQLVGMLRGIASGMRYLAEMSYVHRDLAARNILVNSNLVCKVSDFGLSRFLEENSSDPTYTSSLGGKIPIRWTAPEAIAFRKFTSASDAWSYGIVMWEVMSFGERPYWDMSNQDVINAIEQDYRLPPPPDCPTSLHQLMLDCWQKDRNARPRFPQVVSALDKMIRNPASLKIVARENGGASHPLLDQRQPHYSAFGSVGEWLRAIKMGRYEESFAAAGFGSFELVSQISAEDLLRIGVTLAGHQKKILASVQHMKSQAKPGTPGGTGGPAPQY
Method: as §1, §2, §3, §4

Structure (SMILES) | IGF-1R growth restoration (IGF-1R) | RET growth restoration (RET) | EphA2 growth restoration (EphA2) | VEGFR2 growth restoration (VEGFR2) | VEGFR1 growth restoration (VEGFR1) | EphB4 growth restoration (EphB4)
Clc1ccc(Nc2c(-c3ccccc3)nc3cnccn23)cc1 [compound 16, (4-Chloro-phenyl)-(2-phenyl-imidazo[1,2-a]pyrazin-3-yl)-amine] | − | + | − | − | − | +
CC(=O)Nc1ccc(-c2nc3c(C)nccn3c2Nc2cccc(Cl)c2)cc1 [compound 33, N-{4-[3-(3-Chloro-phenylamino)-8-methyl-imidazo[1,2-a]pyrazin-2-yl]-phenyl}-acetamide] | − | − | + | − | − | +++
Nc1ccc(-c2nc3cnccn3c2Nc2cccc(Cl)c2)cc1 [compound 10, [2-(4-Amino-phenyl)-imidazo[1,2-a]pyrazin-3-yl]-(3-chloro-phenyl)-amine] | − | − | ++ | − | − | +++
Cc1nccn2c(Nc3ccc(F)c(F)c3)c(-c3ccccc3)nc12 [compound 45, (3,4-Difluoro-phenyl)-(8-methyl-2-phenyl-imidazo[1,2-a]pyrazin-3-yl)-amine] | − | − | − | − | − | +++
CC(=O)Nc1ccc(-c2nc3cnccn3c2Nc2cccc(Cl)c2)cc1 [compound 8, N-{4-[3-(3-Chloro-phenylamino)-imidazo[1,2-a]pyrazin-2-yl]-phenyl}-acetamide] | − | − | + | − | − | ++
Cc1cccc(Nc2c(-c3ccccc3)nc3cnccn23)c1 [compound 34, (2-Phenyl-imidazo[1,2-a]pyrazin-3-yl)-m-tolyl-amine] | − | − | − | − | − | + −
Clc1cccc(Nc2c(-c3ccccc3)nc3cnccn23)c1 [compound 35, (3-Chloro-phenyl)-(2-phenyl-imidazo[1,2-a]pyrazin-3-yl)-amine] | − | + | − | − | − | +
Cc1nccn2c(Nc3cccc(Cl)c3)c(-c3ccccc3)nc12 [compound 3, (3-Chloro-phenyl)-(8-methyl-2-phenyl-imidazo[1,2-a]pyrazin-3-yl)-amine] | − | − | − | − | − | ++
COc1cccc(-c2nc3cnccn3c2Nc2cccc(Cl)c2)c1 [compound 7, (3-Chloro-phenyl)-[2-(3-methoxy-phenyl)-imidazo[1,2-a]pyrazin-3-yl]-amine] | − | + − | − | − | − | +
Brc1cccc(Nc2c(-c3ccccc3)nc3cnccn23)c1 [compound 14, (3-Bromo-phenyl)-(2-phenyl-imidazo[1,2-a]pyrazin-3-yl)-amine] | − | − | − | − | − | −
c1ccc(Nc2c(-c3ccccc3)nc3cnccn23)cc1 [compound 23, Phenyl-(2-phenyl-imidazo[1,2-a]pyrazin-3-yl)-amine] | − | + | + | − | − | ++
Fc1ccc(Nc2c(-c3ccccc3)nc3cnccn23)cc1F [compound 30, (3,4-Difluoro-phenyl)-(2-phenyl-imidazo[1,2-a]pyrazin-3-yl)-amine] | − | − | − | − | − | ++
c1ccc(Nc2c(-c3ccc(N4CCOCC4)cc3)nc3cnccn23)cc1 [compound 38, [2-(4-Morpholin-4-yl-phenyl)-imidazo[1,2-a]pyrazin-3-yl]-phenyl-amine] | − | − | + | − | + | ++
Cc1cccc(Nc2c(-c3ccccc3)nc3c(C)nccn23)c1 [compound 43, (8-Methyl-2-phenyl-imidazo[1,2-a]pyrazin-3-yl)-m-tolyl-amine] | − | − | − | − | − | +++
Cc1nccn2c(Nc3ccccc3)c(-c3ccccc3)nc12 [compound 39, (8-Methyl-2-phenyl-imidazo[1,2-a]pyrazin-3-yl)-phenyl-amine] | − | + | + | − | − | +++
